Assays:
[1] = biological target: T1, c-Met intracellular domain protein (Homo sapiens, UniProt P08581); assay: Hepatocyte growth factor receptor (c-Met) kinase inhibitory activity (AlphaScreen); format: biochemical; conditions: for inhibition at 1 µM: 1 μM test compound, read-out: inhibitory rate (%) at 1 μM
T1 construct: 2.5 ng/ml of c-Met intracellular domain protein (Millipore); purchased Millipore
Procedure: A test compound dissolved in dimethyl sulfoxide (DMSO) was diluted with a buffer (50 mM Tris-HCl (pH 7.5), 5 mM MgCl2, 5 mM MnCl2, 2 mM dithiothreitol, 0.01% Tween-20). To this compound solution (5 μL) was added a buffer (10 μL) containing 2.5 ng/ml of c-Met intracellular domain protein (Millipore) and 250 ng/mL of biotin labeled polypeptide biotinyl-poly-Glu:Tyr (4:1) (CIS bio International). […] The reaction solution was allowed to stand at 25° C. for 16 hrs, and the wells were counted using a plate reader (Fusion™ (PerkinElmer)). The kinase inhibitory rate (%) of the test compound was calculated by the following formula: Inhibitory rate (%)=(1−(count of test compound−blank)÷(control−blank))×100
(§1) The count of the solution reacted without addition of the compound was used as a “control”, and the count of the solution without the compound and ATP was used as a “blank”.

[2] = test system: Human gastric cancer cell line MKN-45; assay: Human gastric cancer cell line MKN-45 growth inhibitory test; format: cell-based; conditions: MKN-45, 72 h, culture for 3 days; for inhibition at 1 µM: 1 μM test substance, read-out: inhibitory rate (%) at 1 μM; for IC50: read-out: IC50 value
Procedure: Human gastric cancer cell line MKN-45 (RIKEN BioResource Center) was cultured in RPMI1640 (Invitrogen) containing 10% bovine fetal serum in a gas incubator at 37° C., 5% CO2. MKN-45 cells were treated with trypsin/EDTA and recovered. The cells were suspended in RPMI1640 containing 0.3% bovine fetal serum, plated on a 96 well flat bottom plate at a cells density of 3000 cells/50 μL per well. After culturing overnight, various concentrations of test substance were dissolved in RPMI1640 containing 0.3% bovine fetal serum and added to each well by 50 μL. After culture for 3 days, a Cell counting kit-8 reagent (DOJINDO LABORATORIES) was added to each well by 10 μL, and reacted in an incubator at 37° C., 5% CO2 for 2-3 hr. After the reaction, the absorbance of each well at 450 nm was measured by a microtiter plate reader. The concentration of a test substance necessary for inhibiting the growth by 50% (IC50 value) was calculated using a cell proliferation rate with addition of the test substance at each concentration and according to the nonlinear regression analysis using GraphPad Prism [Sigmoidal dose response (variable slope)]. The cell proliferation rate (%) with addition of a test substance at each concentration was calculated by the following formula. As a positive control (100% growth), dimethyl sulfoxide was added instead of a test substance. As a negative control (0% growth), the compound of Reference Example 136 (WO2005/030140, Entry 104), which is a known c-Met inhibitor, was added in large excess (10 μM) instead of a test substance.

[3] = biological target: T2, FLT3 intracellular domain protein (Homo sapiens, UniProt P36888); assay: Fms Like Tyrosine Kinase 3 (FLT3) kinase inhibitory activity (AlphaScreen); format: biochemical
T2 construct: 7.5 ng/ml of FLT3 intracellular domain protein (Millipore); purchased Millipore
T2 sequence (P36888 564-993 limits assumed): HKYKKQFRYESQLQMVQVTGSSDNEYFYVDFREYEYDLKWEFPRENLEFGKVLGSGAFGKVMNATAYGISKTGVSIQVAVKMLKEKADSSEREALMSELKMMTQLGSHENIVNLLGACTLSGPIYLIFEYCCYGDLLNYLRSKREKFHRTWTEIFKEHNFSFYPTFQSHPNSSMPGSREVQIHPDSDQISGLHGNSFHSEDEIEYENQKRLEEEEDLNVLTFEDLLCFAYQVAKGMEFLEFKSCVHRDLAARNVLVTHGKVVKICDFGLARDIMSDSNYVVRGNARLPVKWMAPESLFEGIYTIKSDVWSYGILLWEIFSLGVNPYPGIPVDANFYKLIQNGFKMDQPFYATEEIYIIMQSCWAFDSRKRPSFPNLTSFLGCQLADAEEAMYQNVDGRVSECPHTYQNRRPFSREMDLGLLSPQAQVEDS
Procedure: A test compound dissolved in dimethyl sulfoxide (DMSO) was diluted with a buffer (50 mM Tris-HCl (pH 7.5), 5 mM MgCl2, 5 mM MnCl2, 2 mM dithiothreitol, 0.01% Tween-20). To this compound solution (5 μL) was added a buffer (10 μL) containing 7.5 ng/ml of FLT3 intracellular domain protein (Millipore) and 250 ng/mL of biotin labeled polypeptide biotinyl-poly-Glu:Tyr (4:1) (CIS bio International). At 5 min after mixing kinase enzyme and the compound and biotin labeled polypeptide, to the obtained mixture was added a buffer (10 μL) containing ATP (5 μM), the mixture was allowed to react at 25° C. for 10 min and the reaction was quenched with 25 μL of a stop solution (100 mM EDTA disodium salt, 62.5 mM HEPES buffer (pH 7.4), 250 mM NaCl, 0.1% bovine serum albumin, 10 μg/mL AlphaScreen assay streptavidin donor beads (Streptavidin Donor Beads: PerkinElmer), 10 μg/mL AlphaScreen assay anti-phosphotyrosine recognition antibody Y-100 binding acceptor beads (Anti-phosphotyrosine (P-Tyr-100) Acceptor beads: PerkinElmer)). The reaction solution was allowed to stand at 25° C. for 16 hrs, and the wells were counted using a plate reader (Envision™ (PerkinElmer)). The kinase inhibitory rate (%) of the test compound was calculated by the following formula: Inhibitory rate (%)=(1−(count of test compound−blank)÷(control−blank))×100
as §1

[4] = test system: Human blood cell cancer cell line MV-4-11; assay: Human blood cell cancer cell line MV-4-11 growth inhibitory test; format: cell-based; conditions: MV4-11, 72 h, culture for 3 days; for inhibition at 1 µM: 1 μM test substance, read-out: inhibitory rate (%) at 1 μM
Procedure: Human blood cell cancer cell line MV-4-11 (ATCC) was cultured in IMDM (Invitrogen) containing 10% bovine fetal serum in an incubator at 37° C., 5% CO2. MV-4-11 cells were treated with trypsin/EDTA and recovered. The cells were suspended in IMDM containing 10% bovine fetal serum, plated on a 96 well flat bottom plate at a cells density of 30,000 cells/50 μL per well. After culturing overnight, various concentrations of test substance were dissolved in IMDM containing 10% bovine fetal serum and added to each well by 50 μL. After culture for 3 days, a Cell counting kit-8 reagent (DOJINDO LABORATORIES) was added to each well by 10 μL, and reacted in an incubator at 37° C., 5% CO2 for 2-3 hr. After the reaction, the absorbance of each well at 450 nm was measured by a microtiter plate reader. The concentration of a test substance necessary for inhibiting the growth by 50% (IC50 value) was calculated using a cell proliferation rate with addition of the test substance at each concentration and according to the nonlinear regression analysis using GraphPad Prism [Sigmoidal dose response (variable slope)].

T1 sequence (P08581 956-1390 limits assumed): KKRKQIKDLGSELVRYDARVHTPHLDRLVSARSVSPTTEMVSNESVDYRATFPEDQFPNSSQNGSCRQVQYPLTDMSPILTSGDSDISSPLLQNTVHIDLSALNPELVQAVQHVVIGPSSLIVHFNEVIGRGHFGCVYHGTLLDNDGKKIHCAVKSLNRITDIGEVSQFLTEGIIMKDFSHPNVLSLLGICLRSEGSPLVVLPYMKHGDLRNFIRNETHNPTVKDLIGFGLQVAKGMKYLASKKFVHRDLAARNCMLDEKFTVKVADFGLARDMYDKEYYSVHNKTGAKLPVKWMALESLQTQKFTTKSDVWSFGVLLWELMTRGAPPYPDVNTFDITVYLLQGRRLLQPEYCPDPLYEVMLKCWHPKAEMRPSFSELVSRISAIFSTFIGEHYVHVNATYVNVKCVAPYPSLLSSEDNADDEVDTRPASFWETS

| Structure (SMILES) | IC50 [1] [nM] | inhibition at 1 µM [1] [%] | inhibition at 1 µM [2] [%] | IC50 [2] [nM] | IC50 [3] [nM] | inhibition at 1 µM [4] [%] | IC50 [4] [nM] | inhibition at 1 µM ([3]; 1 μM test compound, read-out: inhibitory rate (%) at 1 μM) [%] |
| --- | --- | --- | --- | --- | --- | --- | --- | --- |
| Cc1ccc(C(=O)Nc2ccc(Oc3ccc4nc(NC(=O)C5CC5)cn4c3)c(F)c2)[n+]([O-])c1-c1ccc(F)cc1 [Example 29, N-[4-({2-[(cyclopropylcarbonyl)amino]imidazo[1,2-a]pyridin-6-yl}oxy)-3-fluorophenyl]-6-(4-fluorophenyl)-5-methylpyridine-2-carboxamide 1-oxide] | ≤ 1000 | ≥ 80 | ≥ 80 | ≤ 1000 | ≤ 1000 | ≥ 90 | ≤ 1000 | – |
| Cc1ccc(C(=O)Nc2ccc(Oc3ccc4nc(NC(=O)C5CC5)cn4c3)c(F)c2)c(=O)n1-c1ccc(F)cc1.Cl [Example 32, N-[4-({2-[(cyclopropylcarbonyl)amino]imidazo[1,2-a]pyridin-6-yl}oxy)-3-fluorophenyl]-1-(4-fluorophenyl)-6-methyl-2-oxo-1,2-dihydropyridine-3-carboxamide hydrochloride] | ≤ 1000 | ≥ 80 | ≥ 80 | ≤ 1000 | – | ≥ 90 | ≤ 1000 | – |
| Cc1cc(C)n(-c2ccc(F)cc2)c(=O)c1C(=O)Nc1ccc(Oc2ccc3nc(NC(=O)C4CC4)cn3c2)c(F)c1 [Example 82, N-[4-({2-[(cyclopropylcarbonyl)amino]imidazo[1,2-a]pyridin-6-yl}oxy)-3-fluorophenyl]-1-(4-fluorophenyl)-4,6-dimethyl-2-oxo-1,2-dihydropyridine-3-carboxamide] | ≤ 1000 | ≥ 80 | ≥ 80 | ≤ 1000 | ≤ 1000 | ≥ 90 | ≤ 1000 | – |
| O=C(Nc1cn2cc(Oc3ccc(NC(=O)N4CCN(c5ccc(F)cc5)C4=O)cc3F)ccc2n1)C1CC1 [Example 53, N-[4-({2-[(cyclopropylcarbonyl)amino]imidazo[1,2-a]pyridin-6-yl}oxy)-3-sfluorophenyl]-3-(4-fluorophenyl)-2-oxoimidazolidine-1-carboxamide] | ≤ 1000 | ≥ 80 | ≥ 80 | ≤ 1000 | ≤ 1000 | ≥ 90 | ≤ 1000 | ≥ 50 |
| Cc1ccc(C(=O)Nc2ccc(Oc3ccc4nc(NC(=O)C5CC5)cn4c3)cc2)[n+]([O-])c1-c1ccc(F)cc1 [Example 72, N-[4-({2-[(cyclopropylcarbonyl)amino]imidazo[1,2-a]pyridin-6-yl}oxy)phenyl]-6-(4-fluorophenyl)-5-methylpyridine-2-carboxamide 1-oxide] | ≤ 1000 | ≥ 80 | ≥ 80 | ≤ 1000 | ≤ 1000 | ≥ 90 | ≤ 1000 | – |
| Cc1c(C(=O)Nc2ccc(Oc3ccc4nc(NC(=O)C5CC5)cn4c3)c(F)c2)c(=O)n(-c2ccc(F)cc2)n1C [Example 77, N-[4-({2-[(cyclopropylcarbonyl)amino]imidazo[1,2-a]pyridin-6-yl}oxy)-3-fluorophenyl]-2-(4-fluorophenyl)-1,5-dimethyl-3-oxo-2,3-dihydro-1H-pyrazole-4-carboxamide] | ≤ 1000 | ≥ 80 | ≥ 80 | ≤ 1000 | ≤ 1000 | ≥ 90 | ≤ 1000 | – |
| Cc1ccc(C(=O)Nc2ccc(Oc3ccc4nc(NC(=O)C5CC5)cn4c3)c(F)c2)c(=O)n1-c1cccc(F)c1 [Example 75, N-[4-({2-[(cyclopropylcarbonyl)amino]imidazo[1,2-a]pyridin-6-yl}oxy)-3-fluorophenyl]-1-(3-fluorophenyl)-6-methyl-2-oxo-1,2-dihydropyridine-3-carboxamide] | ≤ 1000 | ≥ 80 | ≥ 80 | ≤ 1000 | ≤ 1000 | ≥ 90 | ≤ 1000 | – |
| CC1CCN(C(=O)Nc2ccc(Oc3ccc4nc(NC(=O)C5CC5)cn4c3)c(F)c2)C(=O)N1c1ccc(F)cc1 (stereo not shown) [Example 80, N-[4-({2-[(cyclopropylcarbonyl)amino]imidazo[1,2-a]pyridin-6-yl}oxy)-3-fluorophenyl]-3-(4-fluorophenyl)-4-methyl-2-oxotetrahydropyrimidine-1(2H)-carboxamide] | ≤ 1000 | ≥ 80 | ≥ 80 | ≤ 1000 | ≤ 1000 | ≥ 90 | ≤ 1000 | – |
| Cc1ccc(C(=O)Nc2ccc(Oc3ccn4nc(NC(=O)C5CC5)nc4c3)c(F)c2)c(=O)n1-c1ccc(F)cc1 [Example 76, N-[4-({2-[(cyclopropylcarbonyl)amino][1,2,4]triazolo[1,5-a]pyridine-7-yl}oxy)-3-fluorophenyl]-1-(4-fluorophenyl)-6-methyl-2-oxo-1,2-dihydropyridine-3-carboxamide] | ≤ 1000 | ≥ 80 | ≥ 80 | ≤ 1000 | ≤ 1000 | ≥ 90 | ≤ 1000 | – |
| Cc1ccc(C(=O)Nc2ccc(Oc3ccc4nc(NC(=O)C5CC5)cn4c3)cn2)[n+]([O-])c1-c1ccc(F)cc1 [Example 61, N-[5-({2-[(cyclopropylcarbonyl)amino]imidazo[1,2-a]pyridin-6-yl}oxy)pyridin-2-yl]-6-(4-fluorophenyl)-5-methylpyridine-2-carboxamide 1-oxide] | ≤ 1000 | ≥ 80 | ≥ 80 | ≤ 1000 | ≤ 1000 | ≥ 90 | ≤ 1000 | – |

Reference: patent US8445509B2, “Fused heterocyclic derivatives and use thereof” (Takeda Pharmaceutical Company Limited, priority 2008, dated 2013)
